Data from US9566262B2, “Itch suppression by fucoxanthin” (THE RITSUMEIKAN TRUST, priority 2015, dated 2017).
Entries after “also recorded” stand apart in the source; their conditions may differ.

Legend:
NC/Nga mice [1] = experiment: Transdermal water loss (TEWL) in the skin of NC/Nga mice; type: in vivo; conditions: topical application plus PiCl, at 5 weeks, vs Vaseline
Experimental: Transdermal water loss (TEWL) in the skin of the mice treated with fucoxanthin was also measured and compared with that in the skin of the mice treated with tacrolimus.

FcεRIα = experiment: Real time PCR gene expression in bone marrow cells cultured with IL-3; type: cell-based, mice; conditions: 10 μM added day 0, cultured 1-4 weeks, vs DMSO
Experimental: (§1) Bone marrow cells obtained from 8-week-old female mice was cultured in a medium for conditioning containing IL-3. On the day the bone marrow cells were obtained (day 0), 10 μM fucoxanthin or dimethyl sulfoxide (DMSO) as a control was added to the culture solution and the cells were cultured for 1, 2, 3 or 4 weeks. Quantitative real time PCR was performed according to the method described in Kosaka et al. (supra). Five different cDNA pool dilutions were used for the experiments. The expression levels of PCR products were normalized to that of a housekeeping gene, GAPDH or β-actin, and the measured values were compared with cycle threshold value (Ct value). The primers used are shown below.
(§2) The housekeeping genes GAPDH and β-actin were used for normalization as internal standards. All measurements were performed 4 times.

[2] = tested on: histidine decarboxylase (Hdc); experiment: as above; type: cell-based, mice; conditions: 10 μM added day 0, cultured 1-4 weeks, vs DMSO
Experimental: as §1, §2

Cebpα = experiment: as above; type: cell-based, mice; conditions: vs DMSO
Experimental: as §1, §2

GATA-2 = experiment: as above; type: cell-based, mice; conditions: 10 μM added day 0, cultured 1-4 weeks, vs DMSO
Experimental: as §1, §2

GATA-1 = experiment: as above; type: cell-based, mice; conditions: 10 μM added day 0, cultured 1-4 weeks, vs DMSO
Experimental: as §1, §2

NC/Nga mice [3] = experiment: Toluidine blue staining of skin specimens, number of TB-positive (mast) cells; type: in vivo; conditions: 0.1% fucoxanthin in Vaseline, 5 weeks, vs Vaseline-applied mice
Experimental: In the same manner as described in Example 2, Vaseline or fucoxanthin and PiCl were applied to NC/Nga mice. At 5 weeks after starting application of Vaseline or fucoxanthin, the mice were sacrificed, the mice skins were fixed with 4% paraformaldehyde and embedded in paraffin. The skin specimen was stained with toluidine blue (TB) (pH=4.1). Imaging of the stained specimen was performed by Virtual Slide System (Olympus).

loricrin = experiment: Semi-quantitative immunoblot of skin proteins of NC/Nga mice; type: in vivo; conditions: topical treatment for 5 weeks, vs Vaseline
Experimental: (§3) The immunoblot analysis was performed according to the method described in Kosaka, T. et al. (supra). Mice skin proteins were analyzed by SDS-10% polyacrylamide gel electrophoresis. The blots were incubated with a rabbit anti-filaggrin antibody (Santa Cruz Biotechnology, Inc., Santa Cruz, Calif.), a rabbit anti-actin antibody (Santa Cruz Biotechnology, Inc., Santa Cruz, Calif.) or a rabbit anti-loricrin antibody (Covance, Berkeley, Calif.), and then reacted with a horseradish peroxidase-conjugated anti-rabbit IgG or anti-donkey IgG (Santa Cruz Biotechnology, Inc.).

filaggrin = experiment: as above; type: in vivo; conditions: topical treatment for 5 weeks, vs Vaseline
Experimental: as §3

[4] = tested on: bone marrow-derived mast cells (BMMCs); experiment: Granule formation in BMMCs, tryptase immunostaining; type: cell-based, mice; conditions: 10 μM, vs control-treated cells
Experimental: Mature mast cells were prepared in the same manner as described in Example 5. The BMMCs obtained were mounted on a glass slide and heat-fixed. The analysis of the preparation was performed according to the method described in Kosaka, T., Fukui, R., Matsui, M. et al. (2014) “RAGE, Receptor of Advanced Glycation Endoproducts, Negatively Regulates Chondrocytes Differentiation.” PLoS ONE 9(10): e108819. Briefly, the cells were reacted with a mouse anti-mast cell tryptase antibody (AB2378, Abcam, Tokyo, Japan) and then reacted with an FITC-conjugated anti-mouse IgG (Santa Cruz Biotechnology, Inc.) and 1 μg/mL DAPI (4′,6-diamino-2-phenylindole dihydrochloride). The fluorescent image was analyzed by EVOS® FL Cell Imaging System (Life Technologies Corp).
To confirm where the effect of fucoxanthin on granule formation in mast cells is specific rather than common to carotenoids, we compared granule formation between fucoxanthin-treated and astaxanthin-treated BMMCs by immunostaining of tryptase. The immunostaining assay was performed in the same manner as described in Example 6.

bone marrow cells = experiment: Formation of bone marrow-derived mast cells (BMMCs) from bone marrow cells; type: cell-based, mice; conditions: 0.1 μM, 1 μM or 10 μM, vs DMSO
Experimental: Bone marrow cells were obtained from 8-week-old female mice and cultured in a medium for conditioning that contained WEHI-3 cells (National Institute of Biomedical Innovation, Health and Nutrition). The culture was performed according to the method described in Yamashita, U. et al. (2005) “Strain difference of murine bone marrow-derived mast cell functions.” J. Leukoc. Biol. 78(3): 605-611. The bone marrow cells were treated with 0.1 μM, 1 μM or 10 μM fucxanthin, or dimethyl sulfoxide (DMSO) as a control. The number of BMMCs containing 10 fields (100 μm×100 μm) per well was counted (FIG. 2C).

GATA-luc = experiment: Luciferase reporter assay in HEK293 cells; type: cell-based; conditions: HEK293, treated 3 hours after transfection for 48 hours, vs DMSO (fucoxanthin 0.1, 1, 10 μM)
Source text: The plasmids pGL3-Cebpα promoter-luc and pGL3-Mitf1 promoter-luc were provided by Dr. Hua Huang (University of Colorado school, Denver, USA). The plasmid NF-κB-luc was purchased from Agilent Technologies (Santa Clara, Calif.). The GATA-responsive reporter vector was provided by Dr. Ishijima (Takasaki University of Health and welfare, Gunma, Japan). Three GATA motifs from mouse α-1 globulin gene (5′-TGATAA-3′) were tandemly inserted into Sma I site of pRBGP3. HDC promoter was provided by Dr. Ootsu (Tohoku University school of Medicine, Sendai, Japan) and cloned into Kpn I-Hind III site of pGL4.10 (Hdc promoter-luc). The reporter assay was performed according to the method described in Kanatani, N. et al. Briefly, HEK293 cells were transfected with each of the luciferase constructs (0.2 μg) or pRL-CMV (Promega, Madison, Wis.) (0.001 μg). At 3 hours after transfection, the cells were treated with fucoxanthin (0.1 μM, 1 μM or 10 μM) or DMSO for 48 hours and reporter assay was performed using Dual-Luciferase® Reporter Assay System (Promega). Luciferase activity was measured using luminometer model TD20/20n (Turner BioSystems, Sunnyvale, Calif.) and normalized to Renilla luciferase activity expressed by CMV promoter.
GATA-reporter assay was performed using HEK293 cells expressing GATA-luc prepared in Example 8, in the same manner as described in Example 8 except using various carotenoids (fucoxanthin, astaxanthin, lycopene, β-carotene or retinoic acid) in place of fucoxanthin.

## CC(=O)O[C@H]1CC(C)(C)C(=C=C/C(C)=C/C=C/C(C)=C/C=C/C=C(C)/C=C/C=C(\C)C(=O)C[C@@]23O[C@]2(C)C[C@@H](O)CC3(C)C)[C@](C)(O)C1 [fucoxanthin]
NC/Nga mice [1]
  transdermal water loss (TEWL): remarkably inhibited moisture evaporation
FcεRIα
  expression of FcεRIα: downregulated
[2]
  expression of Hdc: downregulated
Cebpα; 10 μM added day 0, 3 to 4 weeks after starting culture
  expression of Cebpα, 3 to 4 weeks: remarkably upregulated
Cebpα; 10 μM added day 0, first 2 weeks of culture
  expression of Cebpα, first 2 weeks: downregulated
GATA-2
  expression of GATA-2: downregulated
GATA-1
  expression of GATA-1: downregulated
NC/Nga mice [3]
  number of toluidine blue (TB)-positive cells in skin: remarkably lower
loricrin
  loricrin expression level in skin (western blot): elevated
filaggrin
  filaggrin expression level in skin (western blot): elevated
[4]
  granule formation (tryptase-positive cells / immunoreactivity against tryptase): remarkably reduced; also recorded: No tryptase-positive cell; also recorded: suppressed granule formation; also recorded: almost completely inhibited granule formation
Bone marrow cells
  BMMC formation (number of BMMCs): suppressed BMMC formation in a dose-dependent manner
GATA-luc
  GATA-luc expression: downregulated
